According to US9802937B2, “Substituted pyrazolo{4,3-D}pyrimidines as kinase inhibitors” (ORIGENIS GMBH, priority 2011, dated 2017):

Key:
SYK kinase = biological target: T1, SYK kinase (Homo sapiens, UniProt P43405); test: SYK Assay (OMNIA KINASE ASSAY, SOX peptide fluorescence); assay type: biochemical; details: apparent Ki calculated from the IC50 using the Cheng-Prusoff equation; 1 mM ATP, 30° C.; read-out: SYK Activities: Ki
T1 construct: purchased Invitrogen, Carlsbad
Summary of the method: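 Continuous Omnia assay: SYK phosphorylation of SOX-labelled Tyr 7 peptide (10 µM) with 1 mM ATP and 0.2 mM DTT at 30 °C. Fluorescence (ex 360/em 485 nm) read every 30 s for 30 min. Reaction velocity versus inhibitor concentration gives IC50, converted to apparent Ki by Cheng-Prusoff.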

LRRK2 = LRRK2 (Homo sapiens, UniProt Q5S007); test: LRRK2-LRRK2 G2019S-Assay (LanthaScreen Eu Kinase Binding Assay); details: 5 nM LRRK2 or their mutants, 10 nM tracer 236, RT 1 h; read-out: LRRK2 Activities: IC50
Protocol: In the assay LanthaScreen™ Eu Kinase Binding Assay by Invitrogen Corporation (Carlsbad) the effect of invention of a compound on the phosphorylation is determined by measurement of fluorescence intensity emission ratio based on the binding and displacement of a proprietary, Alexa Fluor® 647-labeled, ATP-competitive kinase inhibitor scaffold (kinase tracer) to the kinase of interest. Binding of the tracer to the kinase is detected using a europium-labeled anti-tag antibody, which binds to the kinase of interest. Simultaneous binding of both the tracer and antibody to the kinase results in a high degree of FRET (fluorescence resonance energy transfer) from the europium (Eu) donor fluorophore to the Alexa Fluor® 647 acceptor fluorophore on the kinase tracer. Binding of an inhibitor to the kinase competes for binding with the tracer, resulting in a loss of FRET. The fluorescence intensity ratio is directly proportional to the amount of peptide phosphorylation.
To the wells of an 384 well small volume plate (Greiner, Frickenhausen) are added (i) the compound under test in 5% DMSO/distilled water (5 μl), (ii) 5 μl of the kinase antibody mixture resulting in a final concentration 5 nM LRRK2 or their mutants, 2 nM EU-Anti-GST antibody in 1× kinase buffer A. The reaction was started with addition of (iii) 5 μl resulting in a final concentration of 10 nM tracer 236. The assay plate was incubated at RT for 1 h and fluorescence intensitiy readings were collected using a TECAN M1000 at two wavelengthes of λex 340/λem 615 nm and λex 340/λm 665 nm with a delay time of 100 μs and an integration time of 200 μs after 60 minutes. The emission ratio was calculated by division of the acceptor/tracer emission ([…]) by the antibody/donor emission ([…]). The inhibitor concentration was plotted versus the emission ratio to determine the IC50 using XLFit 5.0 (IDBS, Guildford) to fit to a sigmoidal dose response curve with a variable slope.

LRRK2, sequence (Q5S007 970-2527 limits assumed): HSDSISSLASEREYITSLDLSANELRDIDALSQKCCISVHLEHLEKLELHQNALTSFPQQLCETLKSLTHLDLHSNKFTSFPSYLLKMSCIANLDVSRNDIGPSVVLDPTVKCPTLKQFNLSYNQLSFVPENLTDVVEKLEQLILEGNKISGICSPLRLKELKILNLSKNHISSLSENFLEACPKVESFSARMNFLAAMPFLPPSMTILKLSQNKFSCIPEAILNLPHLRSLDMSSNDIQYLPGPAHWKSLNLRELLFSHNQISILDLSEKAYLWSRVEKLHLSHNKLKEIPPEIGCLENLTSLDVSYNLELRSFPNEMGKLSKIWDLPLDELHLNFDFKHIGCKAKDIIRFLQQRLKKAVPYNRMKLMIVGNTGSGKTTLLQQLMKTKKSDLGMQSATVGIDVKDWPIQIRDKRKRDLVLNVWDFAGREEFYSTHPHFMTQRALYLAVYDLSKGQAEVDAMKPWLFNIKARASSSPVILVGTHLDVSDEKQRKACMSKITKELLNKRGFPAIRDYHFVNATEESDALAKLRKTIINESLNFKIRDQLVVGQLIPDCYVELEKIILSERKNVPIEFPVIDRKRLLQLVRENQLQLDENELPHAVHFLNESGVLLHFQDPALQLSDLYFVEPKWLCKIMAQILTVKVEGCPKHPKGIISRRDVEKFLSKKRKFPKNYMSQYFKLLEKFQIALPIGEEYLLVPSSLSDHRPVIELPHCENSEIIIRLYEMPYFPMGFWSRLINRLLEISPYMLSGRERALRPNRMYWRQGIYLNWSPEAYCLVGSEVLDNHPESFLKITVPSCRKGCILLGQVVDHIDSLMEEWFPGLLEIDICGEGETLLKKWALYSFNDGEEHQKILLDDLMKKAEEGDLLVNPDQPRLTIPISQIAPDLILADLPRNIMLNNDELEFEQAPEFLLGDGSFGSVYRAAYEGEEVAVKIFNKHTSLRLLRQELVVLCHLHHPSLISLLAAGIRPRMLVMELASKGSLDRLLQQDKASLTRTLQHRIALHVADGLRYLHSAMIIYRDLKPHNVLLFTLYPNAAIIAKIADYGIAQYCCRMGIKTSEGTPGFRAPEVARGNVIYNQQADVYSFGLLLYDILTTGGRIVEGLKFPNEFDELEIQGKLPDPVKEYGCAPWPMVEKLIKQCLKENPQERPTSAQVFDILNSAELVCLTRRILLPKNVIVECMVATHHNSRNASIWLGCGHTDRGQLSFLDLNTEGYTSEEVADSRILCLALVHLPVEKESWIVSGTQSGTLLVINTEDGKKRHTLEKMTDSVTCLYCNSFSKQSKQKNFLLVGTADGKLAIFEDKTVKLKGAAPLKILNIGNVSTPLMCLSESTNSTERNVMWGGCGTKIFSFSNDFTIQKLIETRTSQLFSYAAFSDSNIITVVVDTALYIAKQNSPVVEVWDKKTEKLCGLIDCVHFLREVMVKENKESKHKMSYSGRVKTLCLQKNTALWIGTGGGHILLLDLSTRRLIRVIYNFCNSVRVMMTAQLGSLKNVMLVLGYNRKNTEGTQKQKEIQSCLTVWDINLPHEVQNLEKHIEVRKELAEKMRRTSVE

Row | Ki (SYK kinase) | IC50 (LRRK2) | SMILES
1 | < 10 nM | 10 to 100 nM | COc1ccc(-c2nc(Nc3ccc(N(C)C)cc3)c3[nH]ncc3n2)cc1OC [Example #23, N1-(5-(3,4-dimethoxyphenyl)-1H-pyrazolo[4,3-d]pyrimidin-7-yl)-N4,N4-dimethylbenzene-1,4-diamine]
2 | < 10 nM | 100 to 1000 nM | CN(C)c1ccc(Nc2nc(-c3ccccc3)nc3cn[nH]c23)cc1 [Example #4, N1,N1-dimethyl-N4-(5-phenyl-1H-pyrazolo[4,3-d]pyrimidin-7-yl)benzene-1,4-diamine]
3 | < 10 nM | 10 to 100 nM | CN(C)c1ccc(Nc2nc(-c3cccs3)nc3cn[nH]c23)cc1 [Example #71, N1,N1-dimethyl-N4-(5-(thiophen-2-yl)-1H-pyrazolo[4,3-d]pyrimidin-7-yl)benzene-1,4-diamine]
4 | < 10 nM | 10 to 100 nM | CN(C)c1ccc(Nc2nc(-c3ccsc3)nc3cn[nH]c23)cc1 [Example #75, N1,N1-dimethyl-N4-(5-(thiophen-3-yl)-1H-pyrazolo[4,3-d]pyrimidin-7-yl)benzene-1,4-diamine]
5 | < 10 nM | 100 to 1000 nM | COc1ccc(-c2nc(Nc3ccc(N4CCOCC4)cc3)c3[nH]ncc3n2)cc1OC [Example #25, 5-(3,4-dimethoxyphenyl)-N-(4-morpholinophenyl)-1H-pyrazolo[4,3-d]pyrimidin-7-amine]
6 | < 10 nM | 100 to 1000 nM | COc1ccc(Nc2nc(-c3c(F)cccc3F)nc3cn[nH]c23)cc1OC [Example #281, 5-(2,6-difluorophenyl)-N-(3,4-dimethoxyphenyl)-1H-pyrazolo[4,3-d]pyrimidin-7-amine]
7 | < 10 nM | 100 to 1000 nM | COc1cccc(-c2nc(Nc3ccc(OC)c(OC)c3)c3[nH]ncc3n2)c1 [Example #60, N-(3,4-dimethoxyphenyl)-5-(3-methoxyphenyl)-1H-pyrazolo[4,3-d]pyrimidin-7-amine]
8 | < 10 nM | 10 to 100 nM | COc1ccc(-c2nc(Nc3ccc4c(c3)NC(=O)CCC4)c3[nH]ncc3n2)cc1 [Example #164, 8-((5-(4-methoxyphenyl)-1H-pyrazolo[4,3-d]pyrimidin-7-yl)amino)-4,5-dihydro-1H-benzo[b]azepin-2(3H)-one]
9 | 10 to 100 nM | 100 to 1000 nM | COc1ccc(-c2nc(Nc3ccc4cn[nH]c4c3)c3[nH]ncc3n2)cc1OC [Example #22, 5-(3,4-dimethoxyphenyl)-N-(1H-indazol-6-yl)-1H-pyrazolo[4,3-d]pyrimidin-7-amine]
10 | < 10 nM | 10 to 100 nM | COc1ccc(-c2nc(Nc3ccc4c(c3)NCCO4)c3[nH]ncc3n2)cc1 [Example #87, N-(5-(4-methoxyphenyl)-1H-pyrazolo[4,3-d]pyrimidin-7-yl)-3,4-dihydro-2H-benzo[b][1,4]oxazin-6-amine]
11 |  | 100 to 1000 nM | COc1ccc(-c2nc(Nc3cc[nH]n3)c3[nH]ncc3n2)cc1OC [Example #41, 5-(3,4-dimethoxyphenyl)-N-(1H-pyrazol-3-yl)-1H-pyrazolo[4,3-d]pyrimidin-7-amine]
12 | < 10 nM |  | NC(=O)c1ccc(Nc2nc(-c3ccccc3)nc3cn[nH]c23)cc1 [Example #11, 4-((5-phenyl-1H-pyrazolo[4,3-d]pyrimidin-7-yl)amino)benzamide]

Continued, compound first:

Row | SMILES | Ki (SYK kinase) | IC50 (LRRK2)
13 | c1cc(N2CCOCC2)ccc1Nc1nc(-c2ccc(N3CCCC3)nc2)nc2cn[nH]c12 [Example #33, N-(4-morpholinophenyl)-5-(6-(pyrrolidin-1-yl)pyridin-3-yl)-1H-pyrazolo[4,3-d]pyrimidin-7-amine] | < 10 nM | 100 to 1000 nM
14 | c1cc(Nc2nc(-c3ccc(N4CCCC4)nc3)nc3cn[nH]c23)n[nH]1 [Example #48, N-(1H-pyrazol-3-yl)-5-(6-(pyrrolidin-1-yl)pyridin-3-yl)-1H-pyrazolo[4,3-d]pyrimidin-7-amine] | 100 to 1000 nM | 100 to 1000 nM
15 | c1cc(-c2nc(Nc3ccc(N4CCSCC4)cc3)c3[nH]ncc3n2)cs1 [Example #145, N-(4-thiomorpholinophenyl)-5-(thiophen-3-yl)-1H-pyrazolo[4,3-d]pyrimidin-7-amine] | 10 to 100 nM | 10 to 100 nM
16 | COc1ccc(-c2nc(Nc3ccc(N4CCOCC4)cc3)c3[nH]ncc3n2)cc1 [Example #59, 5-(4-methoxyphenyl)-N-(4-morpholinophenyl)-1H-pyrazolo[4,3-d]pyrimidin-7-amine] | < 10 nM | 10 to 100 nM
17 | CN1CCN(c2ccc(Nc3nc(-c4ncco4)nc4cn[nH]c34)cc2)CC1 [Example #203, N-(4-(4-methylpiperazin-1-yl)phenyl)-5-(oxazol-2-yl)-1H-pyrazolo[4,3-d]pyrimidin-7-amine] | < 10 nM | 100 to 1000 nM
18 | O=C1CCc2ccc(Nc3nc(-c4cnc5cc[nH]c5c4)nc4cn[nH]c34)cc2N1 [Example #257, 7-((5-(1H-pyrrolo[3,2-b]pyridin-6-yl)-1H-pyrazolo[4,3-d]pyrimidin-7-yl)amino)-3,4-dihydroquinolin-2(1H)-one] | < 10 nM | 100 to 1000 nM
19 | COc1ccc(-c2nc(Nc3cc(C4CC4)[nH]n3)c3[nH]ncc3n2)cc1 [Example #86, N-(5-cyclopropyl-1H-pyrazol-3-yl)-5-(4-methoxyphenyl)-1H-pyrazolo[4,3-d]pyrimidin-7-amine] | 10 to 100 nM | 100 to 1000 nM
20 | c1ccn2cc(-c3nc(Nc4ccc5[nH]ncc5c4)c4[nH]ncc4n3)nc2c1 [Example #126, 5-(imidazo[1,2-a]pyridin-2-yl)-N-(1H-indazol-5-yl)-1H-pyrazolo[4,3-d]pyrimidin-7-amine] | 10 to 100 nM | 100 to 1000 nM
21 | O=C1COc2ccc(Nc3nc(-c4ccc(N5CCCC5)nc4)nc4cn[nH]c34)cc2N1 [Example #47, 6-((5-(6-(pyrrolidin-1-yl)pyridin-3-yl)-1H-pyrazolo[4,3-d]pyrimidin-7-yl)amino)-2H-benzo[b][1,4]oxazin-3(4H)-one] | 10 to 100 nM | 100 to 1000 nM
22 | O=C1CCc2ccc(Nc3nc(-c4cccc(C(=O)O)c4)nc4cn[nH]c34)cc2N1 [Example #195, 3-(7-((2-oxo-1,2,3,4-tetrahydroquinolin-7-yl)amino)-1H-pyrazolo[4,3-d]pyrimidin-5-yl)benzoic acid] | < 10 nM | 10 to 100 nM
23 | O=C(O)c1ccc(Nc2nc(-c3ccccc3)nc3cn[nH]c23)cc1 [Example #10, 4-((5-phenyl-1H-pyrazolo[4,3-d]pyrimidin-7-yl)amino)benzoic-acid] | < 10 nM | 100 to 1000 nM
24 | O=S(=O)(NC1CC1)c1cccc(Nc2nc(-c3cccs3)nc3cn[nH]c23)c1 [Example #261, N-cyclopropyl-3-((5-(thiophen-2-yl)-1H-pyrazolo[4,3-d]pyrimidin-7-yl)amino)benzenesulfonamide] |  | 100 to 1000 nM
25 | CN1CCC(c2nc(Nc3cc[nH]n3)c3[nH]ncc3n2)CC1 [Example #55, 5-(1-methylpiperidin-4-yl)-N-(1H-pyrazol-3-yl)-1H-pyrazolo[4,3-d]pyrimidin-7-amine] | 100 to 1000 nM | 
26 | CN1CCN(c2ccc(Nc3nc(-c4cccc(CC(=O)O)c4)nc4cn[nH]c34)cc2)CC1 [Example #176, 2-(3-(7-((4-(4-methylpiperazin-1-yl)phenyl)amino)-1H-pyrazolo[4,3-d]pyrimidin-5-yl)phenyl)acetic acid] | 10 to 100 nM | 
27 | CSc1cccc(-c2nc(Nc3ccc(N4CCOCC4)cc3)c3[nH]ncc3n2)c1 [Example #224, 5-(3-(methylthio)phenyl)-N-(4-morpholinophenyl)-1H-pyrazolo[4,3-d]pyrimidin-7-amine] | 100 to 1000 nM | 
28 | CN1CCC(c2nc(Nc3ccc(N4CCOCC4)cc3)c3[nH]ncc3n2)CC1 [Example #52, 5-(1-methylpiperidin-4-yl)-N-(4-morpholinophenyl)-1H-pyrazolo[4,3-d]pyrimidin-7-amine] | 10 to 100 nM | 
29 | COc1ccccc1-c1nc(Nc2ccc(N3CCOCC3)cc2)c2[nH]ncc2n1 [Example #112, 5-(2-methoxyphenyl)-N-(4-morpholinophenyl)-1H-pyrazolo[4,3-d]pyrimidin-7-amine] | 10 to 100 nM | 
30 | O=C(O)c1ccc(-c2nc(Nc3ccc(N4CCOCC4)cc3)c3[nH]ncc3n2)cc1 [Example #243, 4-(7-((4-morpholinophenyl)amino)-1H-pyrazolo[4,3-d]pyrimidin-5-yl)benzoic acid] | < 10 nM | 
31 | CC(C)(C)c1cccc(Nc2nc(-c3cccs3)nc3cn[nH]c23)c1 [Example #305, N-(3-(tert-butyl)phenyl)-5-(thiophen-2-yl)-1H-pyrazolo[4,3-d]pyrimidin-7-amine] | 100 to 1000 nM | 
